Experiments:
CVB3 3C^pro [1] = biological target: T1, CVB3 3C^pro (Coxsackievirus B3, UniProt P03313); test: Cell-based protease assay
FMDV 3C^pro = FMDV 3C^pro (Foot-and-mouth disease virus serotype O, UniProt P03305); test: cell-based; format: cell-based
EV71 3C^pro = EV71 3C^pro (Human enterovirus 71, UniProt Q66478); format: cell-based
PV 3C^pro = PV 3C^pro (Poliovirus type 1, UniProt P03300); format: cell-based
HRV14 3C^pro = HRV14 3C^pro (Human rhinovirus 14, UniProt P03303); format: cell-based
EMCV 3C^pro = biological target: T2, EMCV 3C^pro (Encephalomyocarditis virus, UniProt P03304); format: cell-based
T2 sequence (P03304 1626-1830 limits assumed): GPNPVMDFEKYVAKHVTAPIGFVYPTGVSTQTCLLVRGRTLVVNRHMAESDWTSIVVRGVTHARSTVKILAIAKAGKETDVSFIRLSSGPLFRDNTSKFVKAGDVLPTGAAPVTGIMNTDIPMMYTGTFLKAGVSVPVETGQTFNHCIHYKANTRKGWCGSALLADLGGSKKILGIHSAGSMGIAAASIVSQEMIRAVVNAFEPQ

SAFV 3C^pro = biological target: T3, SAFV 3C^pro (Saffold virus, UniProt C0MHL9); format: cell-based
T3 sequence (C0MHL9 1618-1834 limits assumed): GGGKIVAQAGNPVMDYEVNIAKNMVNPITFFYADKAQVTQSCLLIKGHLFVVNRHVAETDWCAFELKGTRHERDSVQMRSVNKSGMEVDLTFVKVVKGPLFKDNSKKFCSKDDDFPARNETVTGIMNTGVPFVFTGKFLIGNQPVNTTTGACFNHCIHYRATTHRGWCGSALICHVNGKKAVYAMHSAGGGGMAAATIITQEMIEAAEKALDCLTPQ

HPeV 3C^pro = biological target: T4, HPeV 3C^pro (Human parechovirus 1, UniProt Q66578); format: cell-based
T4 sequence (Q66578 1518-1711 limits assumed): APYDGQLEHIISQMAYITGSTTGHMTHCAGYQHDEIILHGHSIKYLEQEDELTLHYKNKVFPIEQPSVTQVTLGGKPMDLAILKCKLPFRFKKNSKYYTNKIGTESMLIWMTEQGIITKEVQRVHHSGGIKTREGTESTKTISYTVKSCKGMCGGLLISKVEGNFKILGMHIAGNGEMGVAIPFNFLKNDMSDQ

HAV 3C^pro = biological target: T5, HAV 3C^pro (Human hepatitis A virus genotype IB, UniProt P08617); format: cell-based
T5 sequence (P08617 1520-1738 limits assumed): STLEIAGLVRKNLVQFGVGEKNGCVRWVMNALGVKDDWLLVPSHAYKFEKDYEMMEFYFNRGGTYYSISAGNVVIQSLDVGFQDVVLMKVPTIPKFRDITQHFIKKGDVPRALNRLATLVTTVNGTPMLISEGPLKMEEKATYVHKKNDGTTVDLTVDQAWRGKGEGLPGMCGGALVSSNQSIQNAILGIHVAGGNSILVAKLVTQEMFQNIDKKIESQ

EMCV = test: Growth curves of EMCV; format: cell-based; details: 50 μM
SAFV = test: Growth curves of SAFV; format: cell-based; details: 50 μM
CVB3 3C^pro [2] = biological target: T1, CVB3 3C^pro; test: Western blot of fusion protein cleavage in COS-1 cells; format: cell-based; details: 50 μM, pBind-3Cpro(CVB3)-VP16
CVB3 3C^pro [3] = biological target: T1, CVB3 3C^pro; test: Cell-based protease assay with EGFP read-out; details: 50 μM, COS-1 cells, imaged after 2 days
HAV strain HM175 = details: ref Debing et al., 2013; cited from earlier work

Row | SMILES | EC50 (CVB3 3C^pro [1]) | EC50 (FMDV 3C^pro) | inhibitory activity towards FMDV 3Cpro (FMDV 3C^pro) | FLuc expression upon treatment, CVB3 3Cpro construct (CVB3 3C^pro [1]; 50 μM, COS-1 cells) | increase in FLuc levels compared to untreated (CVB3 3C^pro [1]; 50 μM, COS-1 cells, CVB3 3Cpro construct) | FLuc expression upon treatment, FMDV 3Cpro construct (FMDV 3C^pro) | FLuc expression upon treatment, EV71 3Cpro construct (EV71 3C^pro) | FLuc expression upon treatment, PV 3Cpro construct (PV 3C^pro) | FLuc expression upon treatment, HRV14 3Cpro construct (HRV14 3C^pro) | effect on reporter activity, EMCV 3Cpro construct (EMCV 3C^pro) | effect on reporter activity, SAFV 3Cpro construct (SAFV 3C^pro) | effect on reporter activity, HPeV 3Cpro construct (HPeV 3C^pro) | effect on reporter activity, HAV 3Cpro construct (HAV 3C^pro) | activity against EMCV in growth curves (EMCV) | activity against SAFV in growth curves (SAFV) | cleavage of fusion protein (Western blot) (CVB3 3C^pro [2]) | GFP signal from pG5EGFP reporter (CVB3 3C^pro [3]) | effect on HAV replication, strain HM175 (HAV strain HM175)
1 | C#CC[C@@H](C(=O)N[C@H](/C=C/C(=O)OCC)C[C@@H]1CCNC1=O)n1cccc(NC(=O)c2cc(C)on2)c1=O [AG7404] | 3.6 µM | > 100 µM | little or no inhibitory activity |  |  |  |  |  |  |  |  |  |  |  |  |  |  | 
2 | CCOC(=O)/C=C/[C@H](C[C@@H]1CCNC1=O)NC(=O)[C@@H](CC(=O)[C@@H](NC(=O)c1cc(C)on1)C(C)C)Cc1ccc(F)cc1 [AG7088] | 1.1 µM |  |  | induced | ~40 fold | increased | induced | induced | induced | no effect | no effect | no effect | no effect | no significant activity | no significant activity | not completely blocked | GFP was visible | no effect
